Laboratory results taken from ChEMBL document CHEMBL1201862, “PubChem BioAssay data set” (2004).
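Compound exposure: 48 hours, 5 concentrations, 96-well plates. GI50 is the concentration that inhibits growth by half.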 Activity calls are given as the source filed them. Rule as the data show it: active = GI50 up to about 1.1 µM and inactive = higher.

Key:
Assay in all cases: NCI tumour cell line growth inhibition, 48 h
MDA-N = tested on: MDA-N
OVCAR-3 = tested on: OVCAR-3
T47D = tested on: T47D
SF-268 = tested on: SF-268
PC-3 = tested on: PC-3
HCC 2998 = tested on: HCC 2998
SN12C = tested on: SN12C
NCI-H226 = tested on: NCI-H226
DU-145 = tested on: DU-145
SR = tested on: SR
NCI/ADR-RES = tested on: NCI/ADR-RES
Hs-578T = tested on: Hs-578T
MDA-MB-231 = tested on: MDA-MB-231
HT-29 = tested on: HT-29
BT-549 = tested on: BT-549
MDA-MB-435 = tested on: MDA-MB-435
SW-620 = tested on: SW-620
MCF7 = tested on: MCF7
786-0 = tested on: 786-0

Measured: GI50

CC(C)C[C@@H](NC(=O)[C@@H](Cc1cccc2ccccc12)NC(=O)N1CCOCC1)B(O)O
inactive: MDA-N 20.7 µM | OVCAR-3 29.4 µM | T47D 58.2 µM | SF-268 61.5 µM | PC-3 > 100 µM | HCC 2998 > 100 µM | SN12C 96.2 µM | NCI-H226 18 µM | DU-145 > 100 µM | SR 27 µM | NCI/ADR-RES > 100 µM | Hs-578T 40.5 µM | MDA-MB-231 50.5 µM | HT-29 59.4 µM | BT-549 36.3 µM | MDA-MB-435 20.8 µM

CN(C)CCCNC(=O)N/N=C/c1ccccn1
inactive: MDA-N > 10 µM | T47D > 10 µM | SW-620 > 10 µM | SF-268 > 10 µM | PC-3 > 10 µM | HCC 2998 > 10 µM | SN12C > 10 µM | DU-145 > 10 µM | SR > 10 µM | NCI/ADR-RES > 10 µM | Hs-578T > 10 µM | MDA-MB-231 > 10 µM | HT-29 > 10 µM | MCF7 > 10 µM

COC(=O)C1=CSC2(S1)C(C(=O)OC)=CSc1c2ssc1=O (stereo not drawn)
inactive: MDA-N 2.13 µM | OVCAR-3 1.81 µM | T47D 2.14 µM | SW-620 1.33 µM | SF-268 2.69 µM | PC-3 2.22 µM | HCC 2998 3.01 µM | SN12C 2.12 µM | NCI-H226 22.7 µM | 786-0 1.57 µM | DU-145 1.73 µM | NCI/ADR-RES 2.87 µM | Hs-578T 2.36 µM | MDA-MB-231 1.85 µM | HT-29 1.81 µM | MCF7 1.75 µM | BT-549 2.7 µM | MDA-MB-435 1.72 µM

Cc1ccc(Nc2nc(C)c(C(=O)CC(=O)C(=O)Nc3c(C)cccc3C(C)(C)C)s2)cc1
inactive: MDA-N > 100 µM | OVCAR-3 > 100 µM | T47D > 100 µM | SW-620 > 100 µM | SF-268 > 100 µM | PC-3 > 100 µM | HCC 2998 > 100 µM | SN12C > 100 µM | NCI-H226 > 100 µM | 786-0 75.9 µM | DU-145 > 100 µM | NCI/ADR-RES > 100 µM | Hs-578T 56 µM | MDA-MB-231 42.9 µM | HT-29 > 100 µM | MCF7 > 100 µM | BT-549 > 100 µM | MDA-MB-435 > 100 µM

C[n+]1c(-c2ccc(/C=N/Nc3n[nH]c(=S)n3N/N=C/c3ccc(-c4cn5ccccc5[n+]4C)cc3)cc2)cn2ccccc21
inactive: MDA-N > 100 µM | T47D > 100 µM | SW-620 > 100 µM | SF-268 > 100 µM | PC-3 > 100 µM | HCC 2998 > 100 µM | SN12C > 100 µM | 786-0 > 100 µM | SR > 100 µM | NCI/ADR-RES > 100 µM | Hs-578T > 100 µM | MDA-MB-231 > 100 µM | HT-29 > 100 µM | MCF7 > 100 µM | MDA-MB-435 > 100 µM

CNC(=O)CNC(=O)CCC(=O)N(C)C
inactive: MDA-N > 100 µM | OVCAR-3 > 100 µM | T47D > 100 µM | SW-620 > 100 µM | SF-268 > 100 µM | PC-3 > 100 µM | HCC 2998 > 100 µM | SN12C > 100 µM | NCI-H226 > 100 µM | 786-0 > 100 µM | DU-145 > 100 µM | NCI/ADR-RES > 100 µM | Hs-578T > 100 µM | MDA-MB-231 > 100 µM | HT-29 > 100 µM | MCF7 > 100 µM | BT-549 > 100 µM | MDA-MB-435 > 100 µM

CCCCCCNC(=O)c1cc(C#Cc2cc(OC)ccc2OC)ccc1OC
inactive: MDA-N 3.22 µM | T47D 2.31 µM | SW-620 8.49 µM | SF-268 > 100 µM | PC-3 62.1 µM | HCC 2998 1.93 µM | 786-0 > 100 µM | SR 3.18 µM | NCI/ADR-RES 47.8 µM | Hs-578T > 100 µM | MDA-MB-231 > 100 µM | HT-29 7.53 µM | MCF7 > 100 µM | BT-549 18.9 µM | MDA-MB-435 2.75 µM

CN1C/C(=C\c2cccs2)C(O)/C(=C/c2cccs2)C1 (stereo not drawn)
inactive: MDA-N > 100 µM | OVCAR-3 > 100 µM | T47D 25.8 µM | SW-620 > 100 µM | SF-268 > 100 µM | PC-3 > 100 µM | HCC 2998 41.1 µM | SN12C 74.5 µM | NCI-H226 > 100 µM | 786-0 > 100 µM | DU-145 > 100 µM | NCI/ADR-RES > 100 µM | Hs-578T > 100 µM | MDA-MB-231 > 100 µM | HT-29 > 100 µM | MCF7 48.5 µM | BT-549 > 100 µM | MDA-MB-435 > 100 µM

CCCCC(=O)c1c(O)nc2sccn2c1=O
inactive: MDA-N > 10 µM | OVCAR-3 > 10 µM | T47D > 10 µM | SW-620 > 10 µM | SF-268 > 10 µM | PC-3 > 10 µM | HCC 2998 > 10 µM | SN12C > 10 µM | NCI-H226 > 10 µM | DU-145 > 10 µM | SR > 10 µM | NCI/ADR-RES > 10 µM | Hs-578T > 10 µM | MDA-MB-231 > 10 µM | HT-29 > 10 µM | MCF7 > 10 µM | MDA-MB-435 > 10 µM

CC1=C(C)SC(=C2Sc3c(n(C)c(=O)[nH]c3=O)S2)S1
inactive: MDA-N > 100 µM | OVCAR-3 > 100 µM | T47D > 100 µM | SW-620 > 100 µM | SF-268 > 100 µM | PC-3 > 100 µM | HCC 2998 > 100 µM | SN12C > 100 µM | NCI-H226 > 100 µM | 786-0 > 100 µM | DU-145 > 100 µM | NCI/ADR-RES > 100 µM | Hs-578T > 100 µM | MDA-MB-231 > 100 µM | HT-29 > 100 µM | MCF7 > 100 µM | BT-549 > 100 µM | MDA-MB-435 > 100 µM

COc1ccc(C2CC(c3c(O)ccc4ccccc34)=NN2)cc1OC (stereo not drawn)
inactive: MDA-N 3.95 µM | OVCAR-3 4.46 µM | T47D 4.04 µM | SF-268 2.87 µM | PC-3 3.54 µM | HCC 2998 2.22 µM | SN12C 4.32 µM | NCI-H226 2.54 µM | DU-145 5.71 µM | NCI/ADR-RES 2.62 µM | Hs-578T 2.16 µM | MDA-MB-231 9.79 µM | HT-29 1.89 µM | MCF7 6.37 µM | BT-549 3.92 µM | MDA-MB-435 2.96 µM

Nc1nc(Cl)nc2c1ncn2C1CCC(CO)O1 (stereo not drawn)
inactive: MDA-N > 100 µM | OVCAR-3 > 100 µM | T47D > 100 µM | SW-620 > 100 µM | PC-3 > 100 µM | SN12C 95.7 µM | NCI-H226 > 100 µM | DU-145 > 100 µM | SR > 100 µM | NCI/ADR-RES 90.6 µM | Hs-578T > 100 µM | HT-29 > 100 µM | MCF7 > 100 µM | BT-549 > 100 µM | MDA-MB-435 > 100 µM
